Measured values: article PMC12279208, “Targeted Penetrating Motif Engineering of BH3 Mimetic: Harnessing Non‐Canonical Amino Acids for Coinhibition of MCL‐1 and BCL‐xL in Acute Myeloid Leukemia” (Advanced Science, 2025)
Square brackets hold non-standard residues; d marks the D form. Peptide text beside a SMILES is read from it. Bpa = N[C@@H](Cc1ccc(C(=O)c2ccccc2)cc1)C(=O)O; Phe(4-Me) = Cc1ccc(C[C@H](N)C(=O)O)cc1; Met(O2) = CS(=O)(=O)CC[C@H](N)C(=O)O; Chg = N[C@H](C(=O)O)C1CCCCC1

Key:
[1] = tested on: AML cells (THP-1) relative to HSCs; experiment: Selectivity index calculation; format: cell-based, human; details: n = 5
Description: The selectivity index (SI) was calculated to assess the specificity of peptide drugs toward leukemia cells relative to normal human HSCs. The SI is defined as the ratio of the IC50 value for HSCs to the IC50 value for leukemia cell lines, as shown in the following formula:
SI=IC50HSCsIC50leukemia cells
(§1) The IC50 values of peptide drugs were determined in the experiments using the CCK-8 assay after a 24-hour incubation. The human acute leukemia cell line THP-1 was used as the leukemia cell model, while normal HSCs served as the control group. Higher SI values indicate greater selectivity of the peptide for leukemia cells over normal cells.

[2] = tested on: HSCs (CD34+ hematopoietic stem cells from cord blood); experiment: CCK-8 cytotoxicity for selectivity, 24 h; format: cell-based; details: Hematopoietic stem cell; human cord blood CD34+ HSCs, CCK-8, 24-hour incubation, n = 5; read-out: HSC IC50
Description: as §1

AML cells (THP-1) = experiment: CCK-8 cytotoxicity for selectivity, 24 h; format: cell-based; details: Homo sapiens; THP-1, CCK-8, 24-hour incubation, n = 5
Description: as §1

MCL-1 = biological target: T1, MCL-1 (Homo sapiens, UniProt Q07820); experiment: Cell-free TR-FRET inhibition of MCL-1 binding to its peptide ligand; details: 3 h at room temperature, 0.25-1000 nM, n = 4
T1 construct: purchased BPS Biosciences 79506
Description: (§2) The inhibition of MCL-1 and BCL-xL binding to their respective ligands was quantified using time-resolved fluorescence resonance energy transfer (TR-FRET) assay kits (BPS Biosciences, Catalog Nos. 79506 and 50223). […] All samples and controls were run in quadruplicate, ensuring a final DMSO concentration below 0.1%. Selected hit compounds were tested at various concentrations: 0.25, 0.5, 1, 2, 4, 8, 16, 32, 64, 125, 500, and 1000 nM. The test assay components were prepared as follows: A 3× MCL TR-FRET assay buffer was diluted with two parts distilled water to create a 1× MCL TR-FRET assay buffer. The anti-His terbium-labeled donor and dye-labeled acceptor were diluted 200-fold in 1× MCL TR-FRET assay buffer. Each well received 5 μL of the anti-His terbium-labeled donor and dye-labeled acceptor mixture. In the negative control wells, 2 μL of inhibitor buffer and 1× MCL-1 TR-FRET assay buffer were added. For the positive control wells, 2 μL of inhibitor buffer and the MCL-1 peptide ligand were added. Subsequently, 2 μL of the diluted test inhibitor solution and the MCL-1 peptide ligand were added to the test inhibitor wells. Finally, 3 μL of diluted MCL-1 protein solution was added to each well, and the plate was incubated at room temperature for 3 hours.
(§3) TR-FRET Ratio=Emission at 665 nmEmission at 620 nm
(§4) The percent activity was calculated as follows:
(§5) Percent Activity=FRETsample-FRETnegFRETp-FRETneg×100%
(§6) where FRETsample is the sample FRET, FRETneg is the negative control FRET, and FRETp is the positive control FRET.

BCL-xL = biological target: T2, BCL-xL (Homo sapiens, UniProt Q07817); experiment: Cell-free TR-FRET inhibition of BCL-xL binding to its peptide ligand; details: 3 h at room temperature, 0.25-1000 nM, n = 4
T2 construct: His; purchased BPS Biosciences 50223
Description: as §2, §3, §4, §5, §6

[3] = tested on: THP-1 luciferase-transplanted xenografts; experiment: AML mouse model, THP-1 luciferase xenograft
Description: To establish the AML mouse model, the animals were intravenously (IV) injected with luciferase-transfected THP-1 cells (THP-1 luciferase; 1 × 10⁶ cells/200 μL). The mice were randomly assigned to one of five experimental groups. […] Venetoclax was formulated for oral administration in a solution comprising 60% phosal 50 propylene glycol (PG), 30% polyethylene glycol (PEG) 400, and 10% ethanol, provided by MedChemExpress[30]. Before administration, both Venetoclax and BH3 peptide stock solutions were freshly diluted to working concentrations with sterile normal saline. The mice were anesthetized and administered 200 µL of a 15 mg/mL luciferase substrate, D-luciferin potassium salt (Beyotime Biotech, ST196-500mg), intraperitoneally. The progression of AML dissemination in mice was monitored until the day of euthanasia using an in vivo optical imaging system (Tanon ABL-X6; Tanon, Shanghai, China). The results were expressed as total flux (photons/s; radiance photons) ± standard deviation (SD) in both in vivo and ex vivo studies. The extent of the leukemia burden was determined by flow cytometry of peripheral blood human CD45+ cells. During the third and fourth weeks of the study, blood was collected from the orbital sinuses of mice in each group. […] Flow cytometry was employed to ascertain the expression of hCD45 in PBMCs. […] Following the completion of the designated treatment period, five mice from each group were randomly selected and euthanized by CO₂ asphyxiation. […] The bone marrow (from the tibia and femur), spleen, and liver were minced and made into single-cell suspensions in PBS, followed by red blood cell lysis. The cells were then stained with hCD45-PE antibody and analyzed by flow cytometry.
Liver, lung, kidney, spleen, and left femur tissues were formalin-fixed and paraffin-embedded. Bone tissue was decalcified with 10% EDTA decalcification solution prior to paraffin embedding. Paraffin blocks were then sectioned at 2-4 μm thickness and mounted on microscope slides. Tissue sections were deparaffinized and rehydrated using 100% xylene and ethanol solutions of decreasing concentrations.

U-937 cells = experiment: Apoptosis detection, Annexin V-FITC/PI flow cytometry; format: cell-based, human; details: U-937, Venetoclax 8 µM, 48 h
Description: (§7) Cell apoptosis was measured following the manufacturer's instructions for the Annexin V-FITC kit (Elabscience, E-CK-A211-100). 1 × 10⁵ cells were co-cultured with varying concentrations of peptides or Venetoclax in 24-well plates for 48 hours. After incubation, the cells were collected by centrifugation, washed with PBS, and incubated with Annexin V-FITC and PI staining solution for 15 minutes under light-protected conditions. Apoptosis was then identified and analyzed using a flow cytometer (Beckman CytoFLEX, USA)[18].

THP-1 cells = experiment: as above; format: cell-based, human; details: THP-1, Venetoclax 0.8 µM, 48 h
Description: as §7

T2 sequence (Q07817 whole entry): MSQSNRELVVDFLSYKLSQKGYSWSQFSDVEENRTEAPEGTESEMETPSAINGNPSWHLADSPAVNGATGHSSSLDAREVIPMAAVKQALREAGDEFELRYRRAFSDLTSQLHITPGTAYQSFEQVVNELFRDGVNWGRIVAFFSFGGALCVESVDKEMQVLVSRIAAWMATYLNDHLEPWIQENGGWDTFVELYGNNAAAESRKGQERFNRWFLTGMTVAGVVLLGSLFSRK
T1 sequence (Q07820 whole entry): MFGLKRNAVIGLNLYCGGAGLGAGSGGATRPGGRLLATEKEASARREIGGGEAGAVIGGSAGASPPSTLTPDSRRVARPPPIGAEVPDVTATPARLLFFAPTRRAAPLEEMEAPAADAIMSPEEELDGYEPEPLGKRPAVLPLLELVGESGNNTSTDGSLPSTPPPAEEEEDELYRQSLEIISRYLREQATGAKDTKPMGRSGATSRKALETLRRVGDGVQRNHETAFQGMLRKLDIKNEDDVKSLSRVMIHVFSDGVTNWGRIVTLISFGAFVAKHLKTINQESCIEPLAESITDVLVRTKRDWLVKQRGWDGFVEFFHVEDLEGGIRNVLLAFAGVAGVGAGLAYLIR

Compound	IC50 (MCL-1) [nM]	IC50 (BCL-xL) [nM]	also measured
Cc1cc2c(C(C)C)c(O)c(O)c(C=O)c2c(O)c1-c1c(C)cc2c(C(C)C)c(O)c(O)c(C=O)c2c1O [AT-101, (R)-(-)-Gossypol]	–	–	Selectivity index (SI) combined with Venetoclax ([1]; IC50 HSCs / IC50 THP-1, in combination with Venetoclax (concentration not given)): 3.85; Selectivity index (SI) ([1]; IC50 HSCs / IC50 leukemia cells (THP-1), single agent): 3.56; IC50 [2]: 67.7 µM; IC50 (AML cells (THP-1)): 18.9 µM
CC[C@H](C)[C@H](NC(=O)[C@H](CCCNC(=N)N)NC(=O)[C@H](CCCNC(=N)N)NC(=O)[C@H](CC(C)C)NC(=O)[C@H](CCC(=O)O)NC(=O)[C@H](CCC(N)=O)NC(=O)[C@H](C)NC(=O)[C@@H](NC(=O)[C@H](Cc1c[nH]c2ccccc12)NC(=O)[C@H](CCS(C)(=O)=O)NC(=O)[C@H](Cc1ccc(C(=O)c2ccccc2)cc1)NC(=O)[C@@H]1CCCN1)C1CCCCC1)C(=O)NCC(=O)N[C@@H](CC(=O)O)C(=O)N[C@@H](CCC(=O)O)C(=O)N[C@@H](Cc1ccc(C)cc1)C(=O)N[C@@H](CC(N)=O)C(=O)N[C@@H](C)C(=O)N[C@@H](Cc1ccc(O)cc1)C(=O)N[C@@H](Cc1ccc(O)cc1)C(=O)N[C@@H](C)C(N)=O [B] (H-P[Bpa][Met(O2)]W[Chg]AQELRRIGDE[Phe(4-Me)]NAYYA-NH2)	122	412	–
CC[C@H](C)[C@H](NC(=O)[C@H](CCCNC(=N)N)NC(=O)[C@H](CCCNC(=N)N)NC(=O)[C@H](CC(C)C)NC(=O)[C@H](CCC(=O)O)NC(=O)[C@H](CCC(N)=O)NC(=O)[C@H](C)NC(=O)[C@@H](NC(=O)[C@H](Cc1c[nH]c2ccccc12)NC(=O)[C@H](CCS(C)(=O)=O)NC(=O)[C@H](CCC(=O)O)NC(=O)[C@@H]1CCCN1)C1CCCCC1)C(=O)NCC(=O)N[C@@H](CC(=O)O)C(=O)N[C@@H](CCC(=O)O)C(=O)N[C@@H](Cc1ccc(C)cc1)C(=O)N[C@@H](CC(N)=O)C(=O)N[C@@H](C)C(=O)N[C@@H](Cc1ccc(O)cc1)C(=O)N[C@@H](Cc1ccc(O)cc1)C(=O)N[C@@H](C)C(N)=O [C] (H-PE[Met(O2)]W[Chg]AQELRRIGDE[Phe(4-Me)]NAYYA-NH2)	48.9	278	–
CC[C@H](C)[C@H](NC(=O)[C@H](CCCNC(=N)N)NC(=O)[C@H](CCCNC(=N)N)NC(=O)[C@H](CC(C)C)NC(=O)[C@H](CCC(=O)O)NC(=O)[C@H](CCC(N)=O)NC(=O)[C@H](C)NC(=O)[C@@H](NC(=O)[C@H](Cc1c[nH]c2ccccc12)NC(=O)[C@@H](NC(=O)[C@H](CCC(=O)O)NC(=O)[C@@H]1CCCN1)[C@@H](C)CC)C1CCCCC1)C(=O)NCC(=O)N[C@@H](CC(=O)O)C(=O)N[C@@H](CCC(=O)O)C(=O)N[C@@H](Cc1ccc(C)cc1)C(=O)N[C@@H](CC(N)=O)C(=O)N[C@@H](C)C(=O)N[C@@H](Cc1ccc(O)cc1)C(=O)N[C@@H](Cc1ccc(O)cc1)C(=O)N[C@@H](C)C(N)=O [D] (H-PEIW[Chg]AQELRRIGDE[Phe(4-Me)]NAYYA-NH2)	25.4	58.5	–
CC[C@H](C)[C@H](NC(=O)[C@H](CCCNC(=N)N)NC(=O)[C@H](CCCNC(=N)N)NC(=O)[C@H](CC(C)C)NC(=O)[C@H](CCC(=O)O)NC(=O)[C@H](CCC(N)=O)NC(=O)[C@H](C)NC(=O)[C@@H](NC(=O)[C@H](Cc1c[nH]c2ccccc12)NC(=O)[C@@H](NC(=O)[C@H](CCC(=O)O)NC(=O)[C@@H]1CCCN1)[C@@H](C)CC)C1CCCCC1)C(=O)NCC(=O)N[C@@H](CC(=O)O)C(=O)N[C@@H](CCC(=O)O)C(=O)N[C@@H](Cc1ccccc1)C(=O)N[C@@H](CC(N)=O)C(=O)N[C@@H](C)C(=O)N[C@@H](Cc1ccc(O)cc1)C(=O)N[C@@H](Cc1ccc(O)cc1)C(=O)N[C@@H](C)C(N)=O [F] (H-PEIW[Chg]AQELRRIGDEFNAYYA-NH2)	9.77	30.8	–
CC[C@H](C)[C@H](NC(=O)[C@H](CCCNC(=N)N)NC(=O)[C@H](CCCNC(=N)N)NC(=O)[C@H](CC(C)C)NC(=O)[C@H](CCC(=O)O)NC(=O)[C@H](CCC(N)=O)NC(=O)[C@H](C)NC(=O)[C@@H](NC(=O)[C@H](Cc1c[nH]c2ccccc12)NC(=O)[C@H](CCS(C)(=O)=O)NC(=O)[C@H](Cc1ccc(C(=O)c2ccccc2)cc1)NC(=O)[C@@H]1CCCN1)[C@@H](C)CC)C(=O)NCC(=O)N[C@@H](CC(=O)O)C(=O)N[C@@H](CCC(=O)O)C(=O)N[C@@H](Cc1ccc(C)cc1)C(=O)N[C@@H](CC(N)=O)C(=O)N[C@@H](C)C(=O)N[C@@H](Cc1ccc(O)cc1)C(=O)N[C@@H](Cc1ccc(O)cc1)C(=O)N[C@@H](C)C(N)=O [G] (H-P[Bpa][Met(O2)]WIAQELRRIGDE[Phe(4-Me)]NAYYA-NH2)	206	565	–
CC1(C)CCC(CN2CCN(c3ccc(C(=O)NS(=O)(=O)c4ccc(NCC5CCOCC5)c([N+](=O)[O-])c4)c(Oc4cnc5[nH]ccc5c4)c3)CC2)=C(c2ccc(Cl)cc2)C1 [Venetoclax]	–	–	Average body weight at study end ([3]; 30 days, same regimens, n = 12, Vehicle ≈19 g): ≈ 20 g; Bioluminescence (tumor burden) over 30 days ([3]; Venetoclax 25 mg kg−1 p.o., TAT-I or vMIP-II-TAT-I 1.5 µmol kg−1 i.v., Combination both, every 2 days, n = 5): minimal therapeutic efficacy; Median survival ([3]; Venetoclax 25 mg kg−1 p.o., TAT-I or vMIP-II-TAT-I 1.5 µmol kg−1 i.v., Combination both, every 2 days, n = 7, Vehicle 35 days): 37 days; hCD45+ cells in PBMCs ([3]; week 3, flow cytometry, n = 5, Vehicle ≈7%): ≈ 5%; Apoptosis (U-937 cells): 49.3%; Apoptosis (THP-1 cells): 47.3%
